Patent publication US20060167094A1, “Satiety agent” (priority 2005, published 2006)

Legend:
[1] = Appetite perceptions (VAS scores) during and after 90 min intraduodenal infusion; format: in vivo, human
Method: (§1) Each subject was studied on three occasions, separated by 3-10 days, to evaluate, in a double-blind, randomized fashion, the effects of intraduodenal infusions of 1) C12, 2) C10, or 3) control solution for 90 min on appetite perceptions, energy intake, APD pressures, and plasma CCK and GLP-1 concentrations.
(§2) Once the catheter was positioned correctly, fasting motility was monitored until the occurrence of phase III of the interdigestive migrating motor complex (MMC). Immediately after the cessation of phase III activity [at time t=−15 min], a baseline venous blood sample was taken, and a visual analog scale questionnaire (VAS) (see Measurements), assessing appetite-related sensations, was administered. At t=0 min (i.e., during phase I of the MMC), the duodenal infusion of 1) C12, 2) C10, or 3) control solution was commenced and continued for 90 min. APD pressures were monitored throughout the infusion period; blood samples were taken, and the VAS administered every 15 min from t=0 min until t=90 min. At t=90 min, the infusion was terminated, and the subject was immediately extubated and offered a cold buffet-style meal, the composition of which is provided in Table 1. The amount of food offered was in excess of what the subject was expected to consume. The subject was given 30 min (i.e., t=90 min to t=120 min) to consume the meal and instructed to eat until comfortably full. After ingestion of the meal, the subject was monitored for a further 30 min, a further VAS was completed, and blood samples were taken at t=120 and 150 min. The intravenous cannula was then removed, and the subject was allowed to leave the laboratory.
Appetite sensations and energy intake. Subjective sensations of appetite, including hunger, fullness, desire to eat, prospective consumption (“how much food do you think you could eat if you were given a meal now?”), were assessed using validated VASs (Sensations of nausea and bloating were also assessed. Each VAS evaluated a sensation on a 100-mm horizontal line, where 0 represented “sensation is not felt at all” and 100 represented “sensation is felt the greatest.” Subjects were asked to place a vertical stroke on the 100-mm line in relation to what they were feeling at that particular point in time.
Baseline (“0”) values were calculated as the mean of values obtained at t=−15 and 0 min for VAS scores and plasma hormone concentrations and between t=−15 to 0 min for basal pyloric pressures, number, and amplitude of IPPWs, antral and duodenal PWs, and total number of duodenal PWSs. Basal pyloric pressures and the number and amplitude of IPPWs were expressed as means over 15-min segments during the 90-min infusion period. Numbers and amplitudes of antral and duodenal PWs were expressed as total number and mean values, respectively, for the 90-min infusion period. Duodenal PWSs were expressed as the total number of waves travelling over two, three, four, five, six, and seven channels during the 90-min infusion period. All data, except for plasma CCK and GLP-1 concentrations, were expressed as changes from baseline.
VAS scores, basal pyloric pressures, number and amplitude of IPPWs, and plasma hormone concentrations were analyzed by repeated-measures mixed model analysis of covariance (ANCOVA), with baseline as the covariate and time (0-90 min, at 15-min intervals) and treatment as within-subject factors. One-way ANOVA was used to assess the effect of treatment on energy intake, time taken to complete eating, total numbers and mean amplitudes of antral and duodenal PWs, and total number of duodenal PWSs. A logarithmic transformation was applied to nausea scores, antral amplitudes, and duodenal PWSs travelling 7.5 and 9 cm to better address the underlying assumptions of the models used (as these variables lacked normal distribution). If significance or near significance ([…]) was found, post hoc comparisons of least-squares means using Student's t-tests were performed. […]

[2] = Energy intake from the buffet meal after intraduodenal infusion; format: in vivo, human
Method: as §1, §2
Energy intake from the buffet meal [energy consumption (in kJ) and macronutrient distribution (in % and g energy)] was analyzed using commercially available software (Food works 3.0, Xyris Software; Highgate Hill, Queensland, Australia). The time taken to finish the meal (in min) was also evaluated.

[3] = cited from earlier work
[4] = during 90 min intraduodenal infusion, 0.375 kcal/min, compared with control
[5] = buffet meal, compared with control

With CCCCCCCCCCCC(=O)O [C12, lauric acid] the “fullness (VAS) after meal ingestion” value ([1]; at 120 and 150 min, after the buffet meal) was “less after C12 than C10”, the “mean score for nausea after termination of infusion” value ([1]; by 120 min (infusion terminated at 90 min)) was “close to baseline” and the “scores for bloating (VAS)” value ([1]; during 90 min intraduodenal infusion, 0.375 kcal/min) was “increased the scores for bloating”. The “nausea scores (VAS)” value [1, 4] was “increased nausea scores compared with control”, the “scores for hunger (VAS)” value [1, 4] was “lower compared with control” and the “scores for prospective consumption (VAS)” value [1, 4] was “lower compared with control”. For the same molecule, the “scores for desire to eat (VAS)” value ([1]; during 90 min intraduodenal infusion, 0.375 kcal/min, healthy males, compared with control) was “lower compared with control”, the subjects reporting nausea ([1]; during C12 infusion 0.375 kcal/min, randomized study of 8 subjects) was “Five of the eight” and the “energy intake at buffet meal” value ([2]; after 90 min intraduodenal infusion 0.375 kcal/min, compared with control) was “dramatically decreased energy intake compared with control”. The “reduction of energy intake compared with the control infusion” value ([2]; all subjects, C12 total energy delivered 141 kJ) was ~2,857 kJ, the “amount of energy (in g) ingested from carbohydrate” value [2, 5] was “reduced” and the “amount of energy (in g) ingested from fat” value [2, 5] was “reduced”. For the same molecule, the “amount of energy (in g) ingested from protein” value [2, 5] was “reduced”, the “potency as suppressant of energy intake relative to C18:1” value ([2]; isoenergetic amounts, intraduodenal, humans) was “more potent suppressant of energy intake” and the “time at which eating from the buffet meal was completed” value ([2]; mean±SE, not statistically significant) was 13 ± 3.5 min. The “energy intake in the absence of nausea” value ([2]; non-nauseated subjects) was “inhibited energy intake in the absence of nausea”, the “magnitude of the reduction in energy intake” value ([2]; subjects that did not experience nausea) was ~1,801 kJ and the “magnitude of the reduction in energy intake” value ([2]; subjects who reported nausea) was ~3,840 kJ. For the same molecule, the “adverse effects of perfusion into human duodenum” value ([3]; 0.36 kcal/min) was “without adverse effects” and the “rate of emptying from the human stomach” value ([3]; in vivo) was 0.375 kcal/min.
